Converted amounts (≈) assume the structure as drawn. The source made the active and inactive calls. The calls are words filed in the database; no cut-off is given here.
Tested on: A-431
Test: Inhibition of EGF-induced [3H]inositol incorporation in to phosphatidylinositol in human A431 cells after 60 mins by liquid scintillation spectrophotometry
Type: functional, cell-based

IC50 [µg/mL]	SMILES	Activity
–	CC[C@@H](C(=O)[C@@H](C)[C@@H](O)[C@@H](C)[C@H]1O[C@@H](CC(=O)OO)[C@H](C)C[C@@H]1C)[C@H]1O[C@](C)([C@]2(O)O[C@](CC)([C@@H](O)CC)C[C@H]2C)C[C@@H]1C	Active
0.5 (≈ 0.713 µM)	CCC[C@H](O)[C@@]1(CC)C[C@@H](C)[C@](O)([C@]2(C)C[C@H](C)[C@@H]([C@@H](CC)C(=O)[C@@H](C)[C@@H](O)[C@H](C)[C@H]3O[C@@](O)([C@H](CC)C(=O)O)[C@@H](C)[C@H](O)[C@H]3CC)O2)O1 [INOSTAMYCIN]	–
–	CC[C@@]1([C@@H]2O[C@@H]([C@H]3O[C@@](O)(CO)[C@H](C)C[C@@H]3C)C[C@@H]2C)CC[C@H]([C@]2(C)CC[C@]3(C[C@H](O)[C@@H](C)[C@@H]([C@@H](C)[C@@H](OC)[C@H](C)C(=O)O)O3)O2)O1	inactive

— ChEMBL document CHEMBL1158911, “Isolation and Structure Determination of Inostamycin, a Novel Inhibitor of Phosphatidylinositol Turnover” (J Nat Prod, 1990)
